The supplement of paper PMC10307832

Assays:
Test in all cases: relative viability (nuclei count vs DMSO), 5 days (fraction); higher = more cells survive
NCI-H322M = tested on: NCI-H322M
Procedure, shortened: (§1)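 Lung cancer cell lines, seeded in 1536-well plates, were treated the following day by pin tool with a single drug or with five library-drug doses (not always all listed) in √10 steps on top of a fixed anchor-drug dose. Cells were fixed and nuclei stained in one step after 5 days, and nuclei were counted. Relative viability is the nuclei count for treated wells divided by that for vehicle wells, reported as medians of duplicate plates.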

CAL-12T = tested on: CAL-12T
Procedure, shortened: as §1

COR-L 105 = tested on: COR-L 105
Procedure, shortened: as §1

NCI-H2023 = tested on: NCI-H2023
Procedure, shortened: as §1

ChaGo-K-1 = tested on: ChaGo-K-1
Procedure, shortened: as §1

HCC-15 = tested on: HCC-15
Procedure, shortened: as §1

NCI-H2085 = tested on: NCI-H2085
Procedure, shortened: as §1

HOP-62 = tested on: HOP-62
Procedure, shortened: as §1

NCI-H1975 = tested on: NCI-H1975
Procedure, shortened: as §1

ABC-1 = tested on: ABC-1
Procedure, shortened: as §1

NCI-H1666 = tested on: NCI-H1666
Procedure, shortened: as §1

EMC-BAC-2 = tested on: EMC-BAC-2
Procedure, shortened: as §1

`C=C1C(=O)O[C@@H](CCCCCCCC)[C@@H]1C(=O)O` [C-75] + COc1cc2c(Oc3ccc(NC(=O)C4(C(=O)Nc5ccc(F)cc5)CC4)cc3F)ccnc2cc1OCCCN1CCOCC1 [Foretinib] (partner 0.25 µM) gave a relative viability (NCI-H322M; first compound 0.08 µM) of 0.928, a relative viability (NCI-H322M; first compound 0.253 µM) of 1.33 and a relative viability (NCI-H322M; first compound 0.8 µM) of 0.839. For the same molecule, the relative viability (NCI-H322M; first compound 2.53 µM) was 0.902, the relative viability (NCI-H322M; first compound 8 µM) was 0.964 and the relative viability (CAL-12T; first compound 0.08 µM) was 1.17. The relative viability (CAL-12T; first compound 0.253 µM) was 1.34, the relative viability (CAL-12T; first compound 0.8 µM) was 1.07 and the relative viability (CAL-12T; first compound 2.53 µM) was 1.05. The relative viability (CAL-12T; first compound 8 µM) was 1.25, the relative viability (COR-L 105; first compound 0.08 µM) was 0.934 and the relative viability (COR-L 105; first compound 0.253 µM) was 1.17. For the same molecule, the relative viability (COR-L 105; first compound 0.8 µM) was 1.12, the relative viability (COR-L 105; first compound 2.53 µM) was 0.828 and the relative viability (COR-L 105; first compound 8 µM) was 1. For the same molecule, the relative viability (NCI-H2023; first compound 0.08 µM) was 0.798, the relative viability (NCI-H2023; first compound 0.253 µM) was 1.05 and the relative viability (NCI-H2023; first compound 0.8 µM) was 0.714. The relative viability (NCI-H2023; first compound 2.53 µM) was 0.943, the relative viability (NCI-H2023; first compound 8 µM) was 1.07 and the relative viability (ChaGo-K-1; first compound 0.08 µM) was 0.915. For the same molecule, the relative viability (ChaGo-K-1; first compound 0.253 µM) was 0.887, the relative viability (ChaGo-K-1; first compound 0.8 µM) was 0.894 and the relative viability (ChaGo-K-1; first compound 2.53 µM) was 0.925. The relative viability (ChaGo-K-1; first compound 8 µM) was 0.874, the relative viability (HCC-15; first compound 0.08 µM) was 0.949 and the relative viability (HCC-15; first compound 0.253 µM) was 1.01. It also gave a relative viability (HCC-15; first compound 0.8 µM) of 0.956, a relative viability (HCC-15; first compound 2.53 µM) of 1 and a relative viability (HCC-15; first compound 8 µM) of 0.931. For the same molecule, the relative viability (NCI-H2085; first compound 0.08 µM) was 0.842, the relative viability (NCI-H2085; first compound 0.253 µM) was 0.879 and the relative viability (NCI-H2085; first compound 0.8 µM) was 0.921. The relative viability (NCI-H2085; first compound 2.53 µM) was 0.782, the relative viability (NCI-H2085; first compound 8 µM) was 1.14 and the relative viability (HOP-62; first compound 0.08 µM) was 1.1. For the same molecule, the relative viability (HOP-62; first compound 0.253 µM) was 1.06, the relative viability (HOP-62; first compound 0.8 µM) was 1.14 and the relative viability (HOP-62; first compound 2.53 µM) was 0.966. For the same molecule, the relative viability (HOP-62; first compound 8 µM) was 1.09, the relative viability (NCI-H1975; first compound 0.08 µM) was 0.917 and the relative viability (NCI-H1975; first compound 0.253 µM) was 0.834. It also gave a relative viability (NCI-H1975; first compound 0.8 µM) of 0.974, a relative viability (NCI-H1975; first compound 2.53 µM) of 0.785 and a relative viability (NCI-H1975; first compound 8 µM) of 0.878. For the same molecule, the relative viability (ABC-1; first compound 0.08 µM) was 1.16, the relative viability (ABC-1; first compound 0.253 µM) was 1.24 and the relative viability (ABC-1; first compound 0.8 µM) was 0.913. It also gave a relative viability (ABC-1; first compound 2.53 µM) of 1.18, a relative viability (ABC-1; first compound 8 µM) of 0.81 and a relative viability (NCI-H1666; first compound 0.08 µM) of 0.991. It also gave a relative viability (NCI-H1666; first compound 0.253 µM) of 1.01, a relative viability (NCI-H1666; first compound 0.8 µM) of 0.969 and a relative viability (NCI-H1666; first compound 2.53 µM) of 0.732. It also gave a relative viability (NCI-H1666; first compound 8 µM) of 0.777, a relative viability (EMC-BAC-2; first compound 0.08 µM) of 1.02 and a relative viability (EMC-BAC-2; first compound 0.253 µM) of 1.1.
